# Where two headings read alike, the source gives them in different places.
# Assays:
# Cryptococcus neoformans [1] = assay: agar dilution assay (MIC) against expanded panel of 84 Cryptococcus neoformans isolates; assay type: cell-based; conditions: for MIC50: read-out: MIC50 (concentration at which 50% of the strains were inhibited); for MIC90: read-out: MIC90 (concentration at which 90% of the strains were inhibited)
# Method: (§1) Such activity may be illustrated with test results against Cryptococcus neoformans employing yeast nitrogen base dextrose agar medium. In carrying out the assay, Compound I was solubilized in 10 percent dimethyl sulfoxide (DMSO) supplemented with one drop of Tween 20. Twofold dilutions were made with sterile distilled water/10 percent DMSO to obtain final drug concentrations in the agar dilution assay plates ranging from 128 to 0.06 μg/ml against two strains of Cryptococcus neoformans and subsequently against an expanded panel of 84 Cryptococcus strains at concentrations ranging from 0.008 to 16.0 μg/ml.
# (§2) Nystatin or amphotericin B was used as a positive control. For the assay, nystatin was solubilized in 10 percent dimethylformamide and diluted in sterile distilled water; amphotericin B was solubilized by expressing water directly into a lyophilized cake and shaking until the colloidal solution was clear and then diluted in sterile distilled water. The final drug concentrations ranged from 0.063 to 128 μg/ml.
# Alternaria solani = assay: disk diffusion assay, Alternaria solani; assay type: cell-based; parameters: key: fuzzy (F)--a zone that had a fuzzy edge and clear center surrounding the disc; hazy (H)--a zone that was hazy throughout; slightly hazy (S)--a zone in which low levels of growth were discernible throughout the inhibition zone; very hazy (V)--a zone in which the differences between the background lawn and inhibition zone were barely discernible; conditions: appearance of inhibition zone
# Method: (§3) The broad antifungal activity of Compound I against fungi may be illustrated with representative assay results in a disk diffusion assay. Filamentous fungi used in the assays were prepared from stock cultures which had been maintained on potato dextrose agar (Difco) and transferred serially at two week intervals using standard microbiological techniques. Yeast used were prepared from stock cultures of strains of yeast which had been maintained frozen at -80° C. in 20 percent aqueous glycerol.
# (§4) Seeded agar assay plates were prepared according to the type of assay strain. Inoculum for filamentous fungi was prepared by scraping the surface of stock plates with a moistened sterile dacron swab. The spores and mycelia were then suspended in 10 milliliters of sterile potato dextrose broth (PDB) and adjusted to 70% transmittance (T) at 660 nm. Inoculum for Cryptococcus was prepared from overnight broth cultures. Cultures were then diluted into PDB to a final concentration of either 40% or 70% T at 660 nm. Assay plates were prepared by diluting the inoculum into appropriate molten agar medium, and thereafter cooled to 45° C., to yield a final concentration of 4 percent.
# (§5) Samples were applied to 6.2 mm filter paper disks (25 μl disk) and air dried at 24° C. […]
# (§6) Following incubation, inhibition zones were measured and recorded. […]
# Aspergillus flavus = assay: disk diffusion assay, Aspergillus flavus; assay type: cell-based; parameters: key: fuzzy (F)--a zone that had a fuzzy edge and clear center surrounding the disc; hazy (H)--a zone that was hazy throughout; slightly hazy (S)--a zone in which low levels of growth were discernible throughout the inhibition zone; very hazy (V)--a zone in which the differences between the background lawn and inhibition zone were barely discernible; conditions: appearance of inhibition zone
# Method: as §3, §4, §5, §6
# Aspergillus fumigatus = assay: disk diffusion assay, Aspergillus fumigatus; assay type: cell-based; parameters: key: fuzzy (F)--a zone that had a fuzzy edge and clear center surrounding the disc; hazy (H)--a zone that was hazy throughout; slightly hazy (S)--a zone in which low levels of growth were discernible throughout the inhibition zone; very hazy (V)--a zone in which the differences between the background lawn and inhibition zone were barely discernible; conditions: appearance of inhibition zone
# Method: as §3, §4, §5, §6
# Aspergillus niger = assay: disk diffusion assay, Aspergillus niger; assay type: cell-based; parameters: key: fuzzy (F)--a zone that had a fuzzy edge and clear center surrounding the disc; hazy (H)--a zone that was hazy throughout; slightly hazy (S)--a zone in which low levels of growth were discernible throughout the inhibition zone; very hazy (V)--a zone in which the differences between the background lawn and inhibition zone were barely discernible; conditions: appearance of inhibition zone
# Method: as §3, §4, §5, §6
# Botrytis allii = assay: disk diffusion assay, Botrytis allii; assay type: cell-based; parameters: key: fuzzy (F)--a zone that had a fuzzy edge and clear center surrounding the disc; hazy (H)--a zone that was hazy throughout; slightly hazy (S)--a zone in which low levels of growth were discernible throughout the inhibition zone; very hazy (V)--a zone in which the differences between the background lawn and inhibition zone were barely discernible; conditions: appearance of inhibition zone
# Method: as §3, §4, §5, §6
# Cephalosporium sp. = assay: disk diffusion assay, Cephalosporium sp.; assay type: cell-based; parameters: key: fuzzy (F)--a zone that had a fuzzy edge and clear center surrounding the disc; hazy (H)--a zone that was hazy throughout; slightly hazy (S)--a zone in which low levels of growth were discernible throughout the inhibition zone; very hazy (V)--a zone in which the differences between the background lawn and inhibition zone were barely discernible; conditions: appearance of inhibition zone
# Method: as §3, §4, §5, §6
# Ceratocystis ulmi = assay: disk diffusion assay, Ceratocystis ulmi; assay type: cell-based; parameters: key: fuzzy (F)--a zone that had a fuzzy edge and clear center surrounding the disc; hazy (H)--a zone that was hazy throughout; slightly hazy (S)--a zone in which low levels of growth were discernible throughout the inhibition zone; very hazy (V)--a zone in which the differences between the background lawn and inhibition zone were barely discernible; conditions: appearance of inhibition zone
# Method: as §3, §4, §5, §6
# Cercospora beticola = assay: disk diffusion assay, Cercospora beticola; assay type: cell-based; parameters: key: fuzzy (F)--a zone that had a fuzzy edge and clear center surrounding the disc; hazy (H)--a zone that was hazy throughout; slightly hazy (S)--a zone in which low levels of growth were discernible throughout the inhibition zone; very hazy (V)--a zone in which the differences between the background lawn and inhibition zone were barely discernible; conditions: appearance of inhibition zone
# Method: as §3, §4, §5, §6
# Cochliobolus miyabeanus = assay: disk diffusion assay, Cochliobolus miyabeanus; assay type: cell-based; parameters: key: fuzzy (F)--a zone that had a fuzzy edge and clear center surrounding the disc; hazy (H)--a zone that was hazy throughout; slightly hazy (S)--a zone in which low levels of growth were discernible throughout the inhibition zone; very hazy (V)--a zone in which the differences between the background lawn and inhibition zone were barely discernible; conditions: appearance of inhibition zone
# Method: as §3, §4, §5, §6
# Fusarium oxysporum = assay: disk diffusion assay, Fusarium oxysporum; assay type: cell-based; parameters: key: fuzzy (F)--a zone that had a fuzzy edge and clear center surrounding the disc; hazy (H)--a zone that was hazy throughout; slightly hazy (S)--a zone in which low levels of growth were discernible throughout the inhibition zone; very hazy (V)--a zone in which the differences between the background lawn and inhibition zone were barely discernible; conditions: appearance of inhibition zone
# Method: as §3, §4, §5, §6
# Penicillium sp. = assay: disk diffusion assay, Penicillium sp.; assay type: cell-based; parameters: key: fuzzy (F)--a zone that had a fuzzy edge and clear center surrounding the disc; hazy (H)--a zone that was hazy throughout; slightly hazy (S)--a zone in which low levels of growth were discernible throughout the inhibition zone; very hazy (V)--a zone in which the differences between the background lawn and inhibition zone were barely discernible; conditions: appearance of inhibition zone
# Method: as §3, §4, §5, §6
# Phoma sp. = assay: disk diffusion assay, Phoma sp.; assay type: cell-based; parameters: key: fuzzy (F)--a zone that had a fuzzy edge and clear center surrounding the disc; hazy (H)--a zone that was hazy throughout; slightly hazy (S)--a zone in which low levels of growth were discernible throughout the inhibition zone; very hazy (V)--a zone in which the differences between the background lawn and inhibition zone were barely discernible; conditions: appearance of inhibition zone
# Method: as §3, §4, §5, §6
# Rhizomucor miehei = assay: disk diffusion assay, Rhizomucor miehei; assay type: cell-based; parameters: key: fuzzy (F)--a zone that had a fuzzy edge and clear center surrounding the disc; hazy (H)--a zone that was hazy throughout; slightly hazy (S)--a zone in which low levels of growth were discernible throughout the inhibition zone; very hazy (V)--a zone in which the differences between the background lawn and inhibition zone were barely discernible; conditions: appearance of inhibition zone
# Method: as §3, §4, §5, §6
# Scopulariopsis communes = assay: disk diffusion assay, Scopulariopsis communes; assay type: cell-based; parameters: key: fuzzy (F)--a zone that had a fuzzy edge and clear center surrounding the disc; hazy (H)--a zone that was hazy throughout; slightly hazy (S)--a zone in which low levels of growth were discernible throughout the inhibition zone; very hazy (V)--a zone in which the differences between the background lawn and inhibition zone were barely discernible; conditions: appearance of inhibition zone
# Method: as §3, §4, §5, §6
# Trichoderma lignorum = assay: disk diffusion assay, Trichoderma lignorum; assay type: cell-based; parameters: key: fuzzy (F)--a zone that had a fuzzy edge and clear center surrounding the disc; hazy (H)--a zone that was hazy throughout; slightly hazy (S)--a zone in which low levels of growth were discernible throughout the inhibition zone; very hazy (V)--a zone in which the differences between the background lawn and inhibition zone were barely discernible; conditions: appearance of inhibition zone
# Method: as §3, §4, §5, §6
# Trichoderma sp. = assay: disk diffusion assay, Trichoderma sp.; assay type: cell-based; parameters: key: fuzzy (F)--a zone that had a fuzzy edge and clear center surrounding the disc; hazy (H)--a zone that was hazy throughout; slightly hazy (S)--a zone in which low levels of growth were discernible throughout the inhibition zone; very hazy (V)--a zone in which the differences between the background lawn and inhibition zone were barely discernible; conditions: appearance of inhibition zone
# Method: as §3, §4, §5, §6
# Ustilago zea = assay: disk diffusion assay, Ustilago zea; assay type: cell-based; parameters: key: fuzzy (F)--a zone that had a fuzzy edge and clear center surrounding the disc; hazy (H)--a zone that was hazy throughout; slightly hazy (S)--a zone in which low levels of growth were discernible throughout the inhibition zone; very hazy (V)--a zone in which the differences between the background lawn and inhibition zone were barely discernible; conditions: appearance of inhibition zone
# Method: as §3, §4, §5, §6
# Verticillium serrae = assay: disk diffusion assay, Verticillium serrae; assay type: cell-based; parameters: key: fuzzy (F)--a zone that had a fuzzy edge and clear center surrounding the disc; hazy (H)--a zone that was hazy throughout; slightly hazy (S)--a zone in which low levels of growth were discernible throughout the inhibition zone; very hazy (V)--a zone in which the differences between the background lawn and inhibition zone were barely discernible; conditions: appearance of inhibition zone
# Method: as §3, §4, §5, §6
# Cryptococcus albidus = assay: disk diffusion assay, Cryptococcus albidus; assay type: cell-based; parameters: key: fuzzy (F)--a zone that had a fuzzy edge and clear center surrounding the disc; hazy (H)--a zone that was hazy throughout; slightly hazy (S)--a zone in which low levels of growth were discernible throughout the inhibition zone; very hazy (V)--a zone in which the differences between the background lawn and inhibition zone were barely discernible; conditions: appearance of inhibition zone
# Method: as §3, §4, §5, §6
# Cryptococcus laurentii = assay: disk diffusion assay, Cryptococcus laurentii; assay type: cell-based; parameters: key: fuzzy (F)--a zone that had a fuzzy edge and clear center surrounding the disc; hazy (H)--a zone that was hazy throughout; slightly hazy (S)--a zone in which low levels of growth were discernible throughout the inhibition zone; very hazy (V)--a zone in which the differences between the background lawn and inhibition zone were barely discernible; conditions: appearance of inhibition zone
# Method: as §3, §4, §5, §6
# Cryptococcus neoformans [2] = assay: agar dilution assay (MIC) against two strains of Cryptococcus neoformans; assay type: cell-based; conditions: yeast nitrogen base dextrose agar
# Method: as §1, §2
# The minimum inhibitory concentration (MIC) against the organisms employed on the standard assay were as follows: […]
# [3] = tested on: certain yeasts, particularly the Cryptococcus species; assay: activity against certain yeasts (statement); assay type: cell-based
# Erwinia species = assay: activity against bacteria (statement), Erwinia; assay type: cell-based
# Staphylococcus species = assay: activity against bacteria (statement), Staphylococcus; assay type: cell-based
# Serratia species = assay: activity against bacteria (statement), Serratia; assay type: cell-based
# solubility = conditions: organic solvents
compound,measurement,setting,value
"C[C@@H]1[C@H](O)[C@@H](C)/C=C/C=C/C=C/C=C/C=C/C=C/C=C/[C@H](O[C@@H]2O[C@H](C)[C@@H](O)[C@H](N)[C@@H]2O)C[C@@H]2O[C@](O)(C[C@@H](O)C[C@@H](O)[C@H](O)CC[C@@H](O)C[C@@H](O)CC(=O)O[C@H]1C)C[C@H](O)[C@H]2C(=O)O [Amphotericin B, amphotericin B, reference compound]",MIC50,Cryptococcus neoformans [1]; 84 isolates,0.125 µg/mL
same,MIC90,Cryptococcus neoformans [1]; 84 isolates,0.25 µg/mL
"COc1ccc(CC2NC(=O)C=CCC(C(C)C3OC3c3ccccc3)OC(=O)C(CC(C)C)OC(=O)C(C)CNC2=O)cc1Cl (stereo not shown) [Compound I, 10-[(3-chloro 4methoxyphenyl)methyl]-6-methyl-3-(2-methylpropyl)-16-[1-(3-phenyloxiranyl)ethyl]-1,4-dioxa-8,11-diazacyclohexadec-13-ene-2,5,9,12-tetrone]",Zone qualifier,Alternaria solani,S
same,Zone qualifier,Aspergillus flavus,S
same,Zone qualifier,Aspergillus fumigatus,S
same,Zone qualifier,Aspergillus niger,S
same,Zone qualifier,Botrytis allii,S
same,Zone qualifier,Cephalosporium sp.,V
same,Zone qualifier,Ceratocystis ulmi,S
same,Zone qualifier,Cercospora beticola,S
same,Zone qualifier,Cochliobolus miyabeanus,F
same,Zone qualifier,Fusarium oxysporum,F
same,Zone qualifier,Penicillium sp.,S and F
same,Zone qualifier,Phoma sp.,S
same,Zone qualifier,Rhizomucor miehei,V
same,Zone qualifier,Scopulariopsis communes,H
same,Zone qualifier,Trichoderma lignorum,S
same,Zone qualifier,Trichoderma sp.,S
same,Zone qualifier,Ustilago zea,S
same,Zone qualifier,Verticillium serrae,V
same,Zone qualifier,Cryptococcus albidus,S
same,Zone qualifier,Cryptococcus laurentii,H and S
same,MIC,"Cryptococcus neoformans [2]; strain MY1051, read-out: Minimum Inhibitory Concentration",≤ 0.063 µg/mL
same,Minimum Inhibitory Concentration,Cryptococcus neoformans [2]; strain MY1146,≤ 0.063 µg/mL
same,MIC,Cryptococcus neoformans [1]; read-out: G-MIC (geometric means of MIC),0.03 µg/mL
same,MIC50,Cryptococcus neoformans [1],0.031 µg/mL
same,MIC90,Cryptococcus neoformans [1],0.031 µg/mL
same,activity against certain yeasts,[3],active
same,activity against bacteria,Erwinia species,active
same,activity against bacteria,Staphylococcus species,active
same,activity against bacteria,Serratia species,active
same,solubility,solubility,soluble in organic solvents
"C[C@@H]1[C@H](O)[C@@H](C)/C=C/C=C/CC/C=C/C=C/C=C/C=C/C(O[C@H]2O[C@H](C)[C@@H](O)[C@H](N)[C@@H]2O)CC2O[C@](O)(CC(O)C(O)CCC(O)CC(O)CC(O)CC(=O)O[C@H]1C)CC(O)C2C(=O)O (stereo partly shown) [Nystatin, nystatin, reference compound]",Minimum Inhibitory Concentration,Cryptococcus neoformans [2]; strain MY1051,1.0 µg/mL
same,Minimum Inhibitory Concentration,Cryptococcus neoformans [2]; strain MY1146,1.0 µg/mL

# — US4946835A (priority 1988, dated 1990)
